# According to US9422240B2, “Partially saturated nitrogen-containing heterocyclic compound” (TAISHO PHARMACEUTICAL CO., LTD, priority 2012, dated 2016):
# Where a name gives a salt, the structure may show the parent alone.
# Key:
# [1] = biological target: T1, human PHD2 (Homo sapiens (Human), UniProt Q9GZT9); assay: Test 2: human PHD2 inhibitory activity, fluorescence polarization assay of HIF-1α peptide proline hydroxylation; assay type: biochemical; details: for IC50: human PHD2, fluorescence polarization assay, 20-min incubation at 30° C.; for inhibition at 1 µM: read-out: Percent inhibition (% at 1 μM)
# Outline: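 A 19-mer HIF-1α peptide served as substrate, with the reaction started by 40 ng/well human PHD2 (cell lysate of NM_022051-transfected cells) and run 20 min at 30° C. before EDTA stop. Hydroxylated product bound anti-HIF-OH antibody, read by fluorescence polarization versus no-compound control.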
# [2] = biological target: T1, human PHD2; assay: Test 1: human PHD2 inhibitory activity, [14C]-2-oxoglutarate to [14C]-succinic acid radiometric assay with HIF-1α peptide; assay type: biochemical; details: read-out: Percent inhibition (% at 1 μM)
# Outline: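 Activity was measured by radiometric counting of [14C]-succinic acid formed during prolyl hydroxylation of a 19-mer HIF-1α peptide, after DNPH removal of residual [14C]-2-oxoglutarate. Baculovirus-expressed human PHD2 lysate (4 μg/well) reacted for 15 min at 37° C. Substrate-free and compound-free wells served as reference points for inhibition.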
# [3] = test compound's concentration 1 μM, Test 2, fluorescence polarization assay
# [4] = test compound's concentration 1 μM, Test 1, [14C]-2-oxoglutarate radiometric assay
# T1 sequence (Q9GZT9 whole entry): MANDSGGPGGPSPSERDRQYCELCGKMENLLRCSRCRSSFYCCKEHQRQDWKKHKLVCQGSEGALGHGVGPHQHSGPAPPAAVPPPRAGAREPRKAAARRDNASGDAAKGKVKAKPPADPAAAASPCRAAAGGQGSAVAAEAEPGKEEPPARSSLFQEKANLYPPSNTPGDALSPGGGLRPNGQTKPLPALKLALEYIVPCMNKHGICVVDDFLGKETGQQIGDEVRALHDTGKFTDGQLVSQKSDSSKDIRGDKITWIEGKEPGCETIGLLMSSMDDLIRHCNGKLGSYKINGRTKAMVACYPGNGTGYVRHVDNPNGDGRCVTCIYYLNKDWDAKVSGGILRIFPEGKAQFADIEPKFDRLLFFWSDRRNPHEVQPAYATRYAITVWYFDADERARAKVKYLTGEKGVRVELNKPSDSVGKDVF
SMILES,IC50 [1],"inhibition at 1 µM [1, 3]","inhibition at 1 µM [2, 4]",inhibition at 1 µM [1],inhibition at 1 µM [2]
O=C(O)CNC(=O)C1=C(O)CCN(Cc2ccc(Oc3ccccc3)cc2)C1=O [Ex. 1-28],88 nM,92%,94%,–,–
O=C(O)CNC(=O)C1=C(O)CCN(Cc2ccccc2)C1=O [Ex. 1-21],–,73%,72%,–,–
O=C(O)CNC(=O)C1=C(O)CC2(CCC2)N(Cc2ccc(C3CC3)cc2)C1=O [Ex. 1-236],–,87%,84%,–,–
CC(C)(C)c1ccc(-c2ccc(CN3C(=O)C(C(=O)NCC(=O)O)=C(O)CC34COC4)cc2)cc1 [Ex. 1-138],–,97%,83%,–,–
CCC1CC(O)=C(C(=O)NCC(=O)O)C(=O)N1Cc1ccc(C(F)(F)F)cc1 (stereo not shown) [Ex. 1-182],–,71%,77%,–,–
O=C(O)CNC(=O)C1=C(O)C2(CCCCCC2)CN(Cc2ccc(-c3ccccc3)cc2)C1=O [Ex. 1-14],–,36%,21%,–,–
N#Cc1ccc(Oc2ccc(CN3CCC(O)=C(C(=O)NCC(=O)O)C3=O)cn2)cc1 [Ex. 1-225],40 nM,98%,100%,–,–
O=C(O)CNC(=O)C1=C(O)C2(CCCCC2)CN(Cc2ccc(-c3ccccn3)cc2)C1=O [Ex. 1-101],–,86%,60%,–,–
O=C(O)CNC(=O)C1=C(O)CCN(Cc2ccc(Oc3ccccc3F)nc2)C1=O [Ex. 1-274],108 nM,94%,92%,–,–
CC1(C)CC(O)=C(C(=O)NCC(=O)O)C(=O)N1Cc1coc(-c2ccccc2)n1 [Ex. 1-295],–,74%,63%,–,–
CC1CC(O)=C(C(=O)NCC(=O)O)C(=O)N1Cc1ccc(Cl)c(Cl)c1 (stereo not shown) [Ex. 1-172],–,79%,77%,–,–
O=C(O)CNC(=O)C1=C(O)CC2(CC2)N(Cc2ccc(C3CC3)cc2)C1=O [Ex. 1-266],–,89%,83%,–,–
O=C(O)CNC(=O)C1=C(O)C2(CCC2)CN(Cc2ccc(C3CC3)cc2)C1=O [Ex. 1-237],–,84%,74%,–,–
CC1CC(O)=C(C(=O)NCC(=O)O)C(=O)N1Cc1cnc(-c2ccccc2)s1 (stereo not shown) [Ex. 1-94],–,92%,84%,–,–
O=C(O)CNC(=O)C1=C(O)CCN(Cc2ccc(Oc3ccc(F)cc3)cn2)C1=O [Ex. 1-259],96 nM,91%,92%,–,–
CC1(C)CC(O)=C(C(=O)NCC(=O)O)C(=O)N1C[C@H]1C[C@@H](c2ccccc2)C1 [Ex. 1-218],–,62%,52%,–,–
Cc1ccc(Oc2ccc(CN3C(=O)C(C(=O)NCC(=O)O)=C(O)CC34CC4)cn2)cc1 [Ex. 1-303],–,100%,102%,–,–
Cc1ccc(CN2CCC(O)=C(C(=O)NCC(=O)O)C2=O)cc1C(F)(F)F [Ex. 1-129],–,80%,71%,–,–
O=C(O)CNC(=O)C1=C(O)CCN(Cc2ccc3cccnc3c2)C1=O [Ex. 1-32],–,82%,78%,–,–
O=C(O)CNC(=O)C1=C(O)CCN(Cc2cnc(-c3ccccc3)s2)C1=O [Ex. 1-44],–,91%,87%,–,–

SMILES,IC50 [1],"inhibition at 1 µM [1, 3]","inhibition at 1 µM [2, 4]",inhibition at 1 µM [1],inhibition at 1 µM [2]
COc1cc(CN2C(=O)C(C(=O)NCC(=O)O)=C(O)CC2(C)C)ccc1C(F)(F)F [Ex. 1-191],–,45%,38%,–,–
O=C(O)CNC(=O)C1=C(O)CCN(C2CCCCC2)C1=O [Ex. 1-307],–,60%,51%,–,–
O=C(O)CNC(=O)C1=C(O)CCN(Cc2ccc(Oc3cccc(C(F)(F)F)c3)nc2)C1=O [Ex. 1-285],43 nM,100%,106%,–,–
O=C(O)CNC(=O)C1=C(O)C2(CCCCC2)CN(Cc2ccc(-c3ccccc3)cc2)C1=O [Ex. 1-8],–,87%,54%,–,–
CCC(c1ccc(C(F)(F)F)cc1)N1CCC(O)=C(C(=O)NCC(=O)O)C1=O (stereo not shown) [Ex. 1-153],–,63%,64%,–,–
Cc1cccc(-c2ccc(CN3CCC(O)=C(C(=O)NCC(=O)O)C3=O)cc2)c1 [Ex. 2-25],–,96%,92%,–,–
O=C(O)CNC(=O)C1=C(O)CC2(COC2)N(Cc2ccc(-c3ccc(C(F)(F)F)cc3)cc2)C1=O [Ex. 1-133],–,97%,104%,–,–
CC1(C)CC(O)=C(C(=O)NCC(=O)O)C(=O)N1Cc1ccc(OCC(F)(F)F)cc1 [Ex. 1-221],–,73%,66%,–,–
O=C(O)CNC(=O)C1=C(O)CCN(CCc2ccc(C(F)(F)F)cc2)C1=O [Ex. 1-176],–,80%,74%,–,–
CCOc1ccc(CN2C(=O)C(C(=O)NCC(=O)O)=C(O)CC2(C)C)cc1 [Ex. 1-234],–,62%,61%,–,–
Cc1ccc(CN2C(=O)C(C(=O)NCC(=O)O)=C(O)CC23CCCCC3)cc1 [Ex. 1-84],–,67%,42%,–,–
O=C(O)CNC(=O)C1=C(O)CC2(CCCCC2)N(Cc2ccccc2)C1=O [Ex. 1-253],–,49%,45%,–,–
Cc1cc(CN2C(=O)C(C(=O)NCC(=O)O)=C(O)CC2(C)C)cc(C)c1OC(F)F [Ex. 1-170],–,45%,35%,–,–
O=C(O)CNC(=O)C1=C(O)CCN(Cc2ccc(C3CC3)c(C(F)(F)F)c2)C1=O [Ex. 1-212],–,85%,82%,–,–
O=C(O)CNC(=O)C1=C(O)C2(CC2)CN(Cc2ccc(OC(F)(F)F)cc2)C1=O [Ex. 1-208],–,85%,90%,–,–
Cc1ccc(Oc2ccc(CN3CCC(O)=C(C(=O)NCC(=O)O)C3=O)cc2)nc1 [Ex. 1-297],89 nM,94%,86%,–,–
CC1(C)CC(O)=C(C(=O)NCC(=O)O)C(=O)N1Cc1nc(-c2ccccc2)cs1 [Ex. 1-294],–,68%,51%,–,–
O=C(O)CNC(=O)C1=C(O)CC2(COC2)N(Cc2ccc(C(F)(F)F)cc2)C1=O [Ex. 1-124],–,79%,72%,–,–
O=C(O)CNC(=O)C1=C(O)CCN(C2CCC(Cc3ccccc3)CC2)C1=O (stereo not shown) [Ex. 1-220],–,82%,72%,–,–
Cc1cccc(Oc2ccc(CN3CCC(O)=C(C(=O)NCC(=O)O)C3=O)cc2)c1 [Ex. 1-257],75 nM,89%,95%,–,–

SMILES,IC50 [1],"inhibition at 1 µM [1, 3]","inhibition at 1 µM [2, 4]",inhibition at 1 µM [1],inhibition at 1 µM [2]
CCc1ccc(CN2CCC(O)=C(C(=O)NCC(=O)O)C2=O)cc1 [Ex. 1-53],–,78%,78%,–,–
CC1(C)CC(O)=C(C(=O)NCC(=O)O)C(=O)N1Cc1ccc(OC(F)(F)F)cc1 [Ex. 1-151],–,63%,57%,–,–
CC1(C)CC(O)=C(C(=O)NCC(=O)O)C(=O)N1C[C@H]1C[C@@H]1c1ccccc1 [Ex. 1-229],–,60%,74%,–,–
O=C(O)CNC(=O)C1=C(O)CCN(Cc2ccc(-c3ccc4ncccc4c3)cc2)C1=O [Ex. 2-27],–,96%,100%,–,–
O=C(O)CNC(=O)C1=C(O)CCN(Cc2ccc(OCc3ccc(F)cc3)cc2)C1=O [Ex. 1-241],–,101%,97%,–,–
O=C(O)CNC(=O)C1=C(O)C2(CCOCC2)CN(Cc2ccc(-c3ccccc3)cc2)C1=O [Ex. 1-11],–,93%,95%,–,–
"O=C(O)CNC(=O)C1=C(O)CCN(Cc2ccc(C3CC3)cc2)C1=O [Ex. 3-2, N-{[1-(4-Cyclopropylbenzyl)-4-hydroxy-2-oxo-1,2,5,6-tetrahydropyridin-3-yl]carbonyl}glycine sodium salt]",–,–,–,90%,87%
O=C(O)CNC(=O)C1=C(O)CCN(Cc2ccc3sccc3c2)C1=O [Ex. 1-270],–,90%,88%,–,–
Cc1cc(CN2C(=O)C(C(=O)NCC(=O)O)=C(O)CC2(C)C)ccc1OC(CF)CF [Ex. 1-189],–,60%,53%,–,–
Cn1cc(-c2ccc(CN3CCC(O)=C(C(=O)NCC(=O)O)C3=O)cc2)cn1 [Ex. 2-6],–,80%,68%,–,–
CC1(C)CN(Cc2ccc(C(F)(F)F)cc2)C(=O)C(C(=O)NCC(=O)O)=C1O [Ex. 1-174],–,74%,59%,–,–
CC1CC(O)=C(C(=O)NCC(=O)O)C(=O)N1Cc1ccc(OC(F)(F)F)cc1 (stereo not shown) [Ex. 1-149],–,74%,74%,–,–
O=C(O)CNC(=O)C1=C(O)C(c2ccccc2)CN(Cc2ccc(-c3ccccc3)cc2)C1=O (stereo not shown) [Ex. 1-57],–,83%,58%,–,–
CC1(C)CC(O)=C(C(=O)NCC(=O)O)C(=O)N1Cc1ccc(OC(F)F)cc1 [Ex. 1-161],–,62%,62%,–,–
CC1(C)CC(O)=C(C(=O)NCC(=O)O)C(=O)N1Cc1ccc(OCCCC(F)(F)F)cc1 [Ex. 1-186],–,77%,64%,–,–
Cc1cccc(Oc2ccc(CN3CCC(O)=C(C(=O)NCC(=O)O)C3=O)cn2)c1 [Ex. 1-255],66 nM,90%,99%,–,–
O=C(O)CNC(=O)C1=C(O)C2(CC2)CN(Cc2ccc(OCC3CC3)cc2)C1=O [Ex. 1-279],–,91%,90%,–,–
O=C(O)CNC(=O)C1=C(O)CCN(Cc2ccc(OCC(F)(F)F)c(F)c2)C1=O [Ex. 1-292],–,86%,83%,–,–
